Entries after “also recorded” stand apart in the source; their conditions may differ. Where two headings read alike, the source gives them in different places.
Columns and labels:
WiDr cells = experiment: Western blot analysis of cell damage and death markers; format: cell-based, human; conditions: WiDr cultures treated with 2a plus NAC
Protocol: Owing to the enhanced antiproliferative effects induced by test compound 2a when compared to CHC, western blot analysis of cell damage and death markers was performed. The master transcription factor p53 regulates the expression of numerous genes involved in cancer progression and is responsible for balancing proliferation and apoptosis. In this regard, we evaluated the effects of compound treatment on p53 expression. Literature reports indicate that MDA-MB-231 and WiDr cells express distinct homozygous mutant forms of p53 that promote an aggressive malignant phenotype with resistance to apoptosis[36],[37]. […] Further, PARP1 is involved in the DNA repair pathway through sensing DNA-strand breaks and recruiting repair enzymes. Importantly, PARP1 is a target of caspase cleavage under apoptotic conditions, and the appearance of the PARP1 cleavage product is a widely used indicator of cellular apoptosis. […] Additionally, DNA damage may be a downstream effect of apoptotic nuclease activity or an increase in reactive oxygen species (ROS) from damaged mitochondria; as illustrated in microscopy and seahorse experiments. Histone 2AX phosphorylation (γH2AX) resulting from DNA single- and double-strand breaks is a widely employed marker for DNA damage. In this regard, we investigated the effect of 2a on DNA damage marker γH2AX (phosphorylated Ser139, histone H2AX) with a phospho-specific antibody. […] Due to the potential of ROS leading to DNA damage and H2AX phosphorylation, we investigated the ability of antioxidant N-acetyl cysteine (NAC) to inhibit DNA damage of compound 2a as evidenced by H2AX phosphorylation in the highly oxidative cell line WiDr (Fig. 4A).
50,000 WiDr or MDA-MB-231 cells were seeded in 100 mm dishes and were incubated for 48 hours. Cells were then treated with test compounds for 24 hours, washed twice with 1X PBS, solubilized in 200 μL SDS boiling buffer (5% w/v SDS, 10% v/v glycerol, and 60 mM Tris pH 6.8), and sonicated. The resulting cell lysate was then assayed for protein using the Pierce BCA protocol. A volume of test sample containing 10 μg protein was loaded on SDS PAGE gel for electrophoresis according to manufacturer’s instructions. Proteins were transferred from the gel to nitrocellulose membrane according to the manufacturer’s instructions. Membranes were blocked for 1 hr at 35 °C using 10% (w/v) non-fat milk in PBST and were exposed to primary antibody. PARP1 (rabbit polyclonal IgG, Origene, TA321555), p53 (rabbit polyclonal IgG, Santa Cruz, sc50329), and γ-H2AX (Upstate 05-636, 1:2500) were detected and visualized using HRP chemiluminescence. For relative quantitation, β-actin (mouse monoclonal IgG C4, Millipore, MAB1501, 1:10,000) and GAPDH (mouse monoclonal IgG, Santa Cruz, sc47724, 1:100) were detected and measured as a control protein.

MCT1 = target: T1, MCT1 (Rattus norvegicus, UniProt P53987); experiment: MCT1 inhibition assay via L-[14C]-lactate uptake in RBE4 cells; format: cell-based; conditions: for MCT1 inhibition properties: at the concentrations tested, RBE4 cells
T1 construct: using an L-[^14C]-lactate study on the MCT1 expressing RBE4 cell line; endogenous in cells; host or cells: RBE4 (rat brain endothelial 4) cells, a gift from F. Roux
T1 sequence (P53987 1-494): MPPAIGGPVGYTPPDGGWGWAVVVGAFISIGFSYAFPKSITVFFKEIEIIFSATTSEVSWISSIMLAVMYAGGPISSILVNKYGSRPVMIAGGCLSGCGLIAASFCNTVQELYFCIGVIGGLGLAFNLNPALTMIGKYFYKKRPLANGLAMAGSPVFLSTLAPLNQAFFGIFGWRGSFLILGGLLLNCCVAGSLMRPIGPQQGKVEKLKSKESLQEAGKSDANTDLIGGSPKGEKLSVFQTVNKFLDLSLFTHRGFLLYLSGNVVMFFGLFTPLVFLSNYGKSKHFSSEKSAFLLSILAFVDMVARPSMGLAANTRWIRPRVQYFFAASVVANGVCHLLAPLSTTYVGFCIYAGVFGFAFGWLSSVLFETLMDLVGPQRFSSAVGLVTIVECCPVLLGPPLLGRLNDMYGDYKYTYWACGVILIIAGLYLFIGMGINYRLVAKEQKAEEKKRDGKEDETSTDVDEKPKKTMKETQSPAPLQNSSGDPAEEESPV

[1] = test system: MCF7, 4T1, WiDr, and MDA-MB-231 cell lines; experiment: MTT cell proliferation inhibition, all cell lines tested; format: cell-based; conditions: for cell proliferation inhibition: concentrations up to 500 µM, solubility limit above (0.1% DMSO in growth media)
Protocol: (§1) Cell proliferation inhibition was evaluated using 3-(4,5-dimethylthiazol-2-yl)-2,5-diphenyl tetrazolium bromide (MTT) assay as reported previously[19].

MDA-MB-231 cell line = experiment: MTT cell proliferation inhibition assay; conditions: Homo sapiens, MDA-MB-231, read-out: MTT IC50
Protocol: (§2) Human triple-negative breast cancer MDA-MB-231 cells (ATCC) were grown in DMEM supplemented with 10% FBS (Atlanta Biologicals) and penicillin-streptomycin (50U/ml, 50 µg/ml, Invitrogen). Human colorectal adenocarcinoma WiDr cells (ATCC) were cultured in MEM medium supplemented with 10% FBS and penicillin-streptomycin. […] Murine metastatic breast cancer 4T1 cells were grown in RPMI-1640 supplemented with 10% FBS and penicillin-streptomycin. Human estrogen receptor positive breast cancer MCF7 cells (Masonic Cancer Center, University of Minnesota) were grown in MEM supplemented with 6% FBS, EGF (0.01 µg/ml), NEAA, HDC (1 µg/ml), insulin (10 µg/ml), HEPES (12 mM) and sodium pyruvate (1 mM).
as §1

4T1 cell line = experiment: MTT cell proliferation inhibition assay; conditions: Mus musculus, 4T1, read-out: MTT IC50
Protocol: as §2, §1

MCF7 cell line = experiment: MTT cell proliferation inhibition assay; conditions: Homo sapiens, MCF7, read-out: MTT IC50
Protocol: as §2, §1

WiDr cell line = experiment: MTT cell proliferation inhibition assay; conditions: Homo sapiens, read-out: MTT IC50
Protocol: as §2, §1

[2] = L-[14C]-lactate uptake, MCT1 expressing RBE4 cell line, average ± SEM of three separate experiments, read-out: MCT1 IC50

IC50 (MCT1; [2]) [µM] | IC50 (MDA-MB-231 cell line) [µM] | IC50 (4T1 cell line) [µM] | IC50 (MCF7 cell line) [µM] | Structure (SMILES) | effect on 2a-induced H2AX activation (WiDr cells) | effect on 2a-induced PARP1 cleavage (WiDr cells) | MCT1 inhibition properties (MCT1) | cell proliferation inhibition [1] | IC50 (WiDr cell line) [µM] | IC50 (MCT1) [µM] | concentration at which MCT1 function is inhibited (MCT1; lactate uptake assay, discussion statement) [µM] | IC50 ([1]; read-out: MTT IC50 values, span over all the cell lines tested) [µM]
– | – | – | – | CC(=O)N[C@@H](CS)C(=O)O [NAC, N-acetyl cysteine, reference compound] | significantly reduced | did not reverse PARP1 cleavage | – | – | – | – | – | –
> 5 | > 500 | > 500 | > 500 | N#C/C(=C\c1ccc(OCCO)cc1)C(=O)O [2c] | – | – | did not exhibit MCT1 inhibition properties | did not show significant cell proliferation inhibition; also recorded: did not exhibit any cell proliferation inhibition properties | > 500 | – | – | –
> 5 | > 500 | > 500 | > 500 | N#C/C(=C\c1ccc(OCCBr)cc1)C(=O)O [2d] | – | – | did not exhibit MCT1 inhibition properties | did not show significant cell proliferation inhibition; also recorded: did not exhibit any cell proliferation inhibition properties | > 500 | – | – | –

Structure (SMILES) | IC50 (MCT1; [2]) [µM] | IC50 (MDA-MB-231 cell line) [µM] | IC50 (4T1 cell line) [µM] | IC50 (MCF7 cell line) [µM] | effect on 2a-induced H2AX activation (WiDr cells) | effect on 2a-induced PARP1 cleavage (WiDr cells) | MCT1 inhibition properties (MCT1) | cell proliferation inhibition [1] | IC50 (WiDr cell line) [µM] | IC50 (MCT1) [µM] | concentration at which MCT1 function is inhibited (MCT1; lactate uptake assay, discussion statement) [µM] | IC50 ([1]; read-out: MTT IC50 values, span over all the cell lines tested) [µM]
N#CC(=Cc1ccc(O)cc1)C(=O)O [CHC 1, α-cyano-4-hydroxycinnamic acid, reference compound] | – | 5300 ± 130 | 3600 ± 300 | 4000 ± 130 | – | – | – | – | 1100 ± 96 | > 150 | ≥ 150 | 1100 to 5300

From PMC6892925, “Development of Novel Silyl Cyanocinnamic Acid Derivatives as Metabolic Plasticity Inhibitors for Cancer Treatment” (Scientific Reports, 2019)
